Test results reported in patent US10472341B2, “Bicyclic tetrahydrothiazepine derivatives useful for the treatment of neoplastic and/or infectious diseases” (APEIRON BIOLOGICS AG, priority 2015, dated 2019).

How the values were obtained:
Assay type in all cases: cell-based, human
[1] = tested on: NK cells & K562 leukemia cells; assay: NK cells alone or in co-culture with K562 leukemia cells: IFN-gamma, TNF-alpha, granzyme, CD25+CD69+
Method: Isolated PBMCs, NK cells or CD8 positive cells were plated in Xvivo medium at 1.5*10^5 cells per in 96 well culture plates in the presence of 0.3*10^4 tumor cells where indicated. Cytokine secretion was determined by ELISA, immune cell activation (using Beckman-Coulter Abs CD25-PC5, CD69-PC7), cell viability and numbers by flow cytometry (Beckman-Coulter FC500 or Gallios) using 7-AAD exclusion as criterion for living cells. One of the physiological functions of NK cells in anti-tumor immunity is the recognition and destruction of tumor cells that have a low expression of MHC-molecules, thus avoiding recognition by CD8 T cells. Downregulation of MHC molecules is often actively mediated by an infecting virus or occurs during development of malignant neoplasms. The […] leukemia cell line expresses only very low amounts of MHC-molecules and thus is often used as a model system to investigate anti-tumor NK cell reactivity. NK cells were isolated from PBMCs and were incubated with and without compounds, either alone or in co-culture with K562 leukemia cells.

K562 leukemia cells = assay: Living tumor cells (K562) in the presence of NK cells
Method: (§1) Isolated PBMCs, NK cells or CD8 positive cells were plated in Xvivo medium at 1.5*10^5 cells per in 96 well culture plates in the presence of 0.3*10^4 tumor cells where indicated. Cytokine secretion was determined by ELISA, immune cell activation (using Beckman-Coulter Abs CD25-PC5, CD69-PC7), cell viability and numbers by flow cytometry (Beckman-Coulter FC500 or Gallios) using 7-AAD exclusion as criterion for living cells. NK cells were isolated from PBMCs and were incubated with and without compounds, either alone or in co-culture with K562 leukemia cells.

CD8 T cells = assay: CD8 T cell viability (number of living cells) with or without M21 cells
Method: as §1, with “cells. CD8-positive immune” for “cells. NK”, “without compound example 67,” for “without compounds,”, “with M21 melanoma” for “with K562 leukemia”

## CCCCNC(=O)c1ccc2c(c1)N(Cc1ccc(OC(F)(F)F)cc1)C(=O)[C@@H](N)CS2(=O)=O.Cl [Example 67, (3R)-3-amino-N-butyl-1,1,4-trioxo-5-{[4-(trifluoromethoxy)phenyl]methyl}-2,3,4,5-tetrahydro-1λ^6,5-benzothiazepine-7-carboxamide hydrochloride]
[1]; 0.03 μM, NK cells & K562
  IFN-gamma [ng/ml] Avg: 7.47 ng/mL
  TNF-alpha [ng/ml] avg: 0.21 ng/mL
[1]; 0.03 μM, NK cells only
  IFN-gamma [ng/ml] Avg: below
  TNF-alpha [ng/ml] avg: below
[1]; 0.1 μM, NK cells & K562
  IFN-gamma [ng/ml] Avg: 10.14 ng/mL
  TNF-alpha [ng/ml] avg: 0.26 ng/mL
[1]; 0.1 μM, NK cells only
  IFN-gamma [ng/ml] Avg: below
  TNF-alpha [ng/ml] avg: below
[1]; 0.3 μM, NK cells & K562
  IFN-gamma [ng/ml] Avg: 11.24 ng/mL
  TNF-alpha [ng/ml] avg: 0.33 ng/mL
[1]; 0.3 μM, NK cells only
  IFN-gamma [ng/ml] Avg: below
  TNF-alpha [ng/ml] avg: below
[1]; 1 μM, NK cells & K562
  IFN-gamma [ng/ml] Avg: 16.40 ng/mL
  TNF-alpha [ng/ml] avg: 0.57 ng/mL
[1]; 1 μM, NK cells only
  IFN-gamma [ng/ml] Avg: below
  TNF-alpha [ng/ml] avg: below
[1]; 3 μM, NK cells & K562
  IFN-gamma [ng/ml] Avg: 17.80 ng/mL
  TNF-alpha [ng/ml] avg: 0.58 ng/mL
[1]; 3 μM, NK cells only
  IFN-gamma [ng/ml] Avg: below
  TNF-alpha [ng/ml] avg: below
[1]; 10 μM, NK cells & K562
  IFN-gamma [ng/ml] Avg: 22.65 ng/mL
  TNF-alpha [ng/ml] avg: 0.80 ng/mL
[1]; 10 μM, NK cells only
  IFN-gamma [ng/ml] Avg: below
  TNF-alpha [ng/ml] avg: below
[1]; 30 μM, NK cells & K562
  IFN-gamma [ng/ml] Avg: 19.98 ng/mL
  TNF-alpha [ng/ml] avg: 0.79 ng/mL
[1]; 30 μM, NK cells only
  IFN-gamma [ng/ml] Avg: below
  TNF-alpha [ng/ml] avg: below
[1]; NK cells & K562, 0.03 μM
  CD25+CD69+: 6.90 % gated
  Granzyme: 0.65 ng/mL
[1]; NK cells & K562, 0.1 μM
  CD25+CD69+: 8.44 % gated
  Granzyme: 0.93 ng/mL
[1]; NK cells & K562, 0.3 μM
  CD25+CD69+: 9.68 % gated
  Granzyme: 1.01 ng/mL
[1]; NK cells & K562, 1 μM
  CD25+CD69+: 18.80 % gated
  Granzyme: 1.47 ng/mL
[1]; NK cells & K562, 3 μM
  CD25+CD69+: 21.66 % gated
  Granzyme: 1.62 ng/mL
[1]; NK cells & K562, 10 μM
  CD25+CD69+: 31.98 % gated
  Granzyme: 2.52 ng/mL
[1]; NK cells & K562, 30 μM
  CD25+CD69+: 35.89 % gated
  Granzyme: 2.43 ng/mL
[1]; NK cells in co-culture with K562 leukemia cells
  production of IFN-gamma and TNF-alpha: enhanced production of both cytokines specifically upon tumor cell contact
[1]; NK cells in the absence of tumor cells
  enhancement of IFN-gamma and TNF-alpha production: such effect was not detected in the absence of tumor cells
[1]; NK cells only, 0.03 μM
  CD25+CD69+: 0.05 % gated
  Granzyme: 0.08 ng/mL
[1]; NK cells only, 0.1 μM
  CD25+CD69+: 0.06 % gated
  Granzyme: 0.09 ng/mL
[1]; NK cells only, 0.3 μM
  CD25+CD69+: 0.15 % gated
  Granzyme: 0.08 ng/mL
[1]; NK cells only, 1 μM
  CD25+CD69+: 0.39 % gated
  Granzyme: 0.06 ng/mL
[1]; NK cells only, 3 μM
  CD25+CD69+: 0.47 % gated
  Granzyme: 0.12 ng/mL
[1]; NK cells only, 10 μM
  CD25+CD69+: 0.95 % gated
  Granzyme: 0.15 ng/mL
[1]; NK cells only, 30 μM
  CD25+CD69+: 1.24 % gated
  Granzyme: 0.25 ng/mL
K562 leukemia cells; K562 only, 0.3 μM
  Living tumor cells: 22199.00
K562 leukemia cells; K562 only, 3 μM
  Living tumor cells: 20750.33
K562 leukemia cells; K562 only, 30 μM
  Living tumor cells: 22719.33
K562 leukemia cells; NK cells & K562, 0.01 μM
  Living tumor cells: 709.00
K562 leukemia cells; NK cells & K562, 0.03 μM
  Living tumor cells: 779.67
K562 leukemia cells; NK cells & K562, 0.1 μM
  Living tumor cells: 712.67
K562 leukemia cells; NK cells & K562, 0.3 μM
  Living tumor cells: 676.00
K562 leukemia cells; NK cells & K562, 1 μM
  Living tumor cells: 623.33
K562 leukemia cells; NK cells & K562, 3 μM
  Living tumor cells: 620.33
K562 leukemia cells; NK cells & K562, 10 μM
  Living tumor cells: 611.67
K562 leukemia cells; NK cells & K562, 30 μM
  Living tumor cells: 632.00
CD8 T cells; 0.03 μM, CD8 cells & M21
  CD8 T cell viability [Number of Living Cells] average: 22933.00 Number of Living Cells
CD8 T cells; 0.03 μM, CD8 only
  CD8 T cell viability [Number of Living Cells] average: 23523.00 Number of Living Cells
CD8 T cells; 0.1 μM, CD8 cells & M21
  CD8 T cell viability [Number of Living Cells] average: 23942.33 Number of Living Cells
CD8 T cells; 0.1 μM, CD8 only
  CD8 T cell viability [Number of Living Cells] average: 24094.33 Number of Living Cells
CD8 T cells; 0.3 μM, CD8 cells & M21
  CD8 T cell viability [Number of Living Cells] average: 23944.67 Number of Living Cells
CD8 T cells; 0.3 μM, CD8 only
  CD8 T cell viability [Number of Living Cells] average: 23739.00 Number of Living Cells
CD8 T cells; 1 μM, CD8 cells & M21
  CD8 T cell viability [Number of Living Cells] average: 24569.67 Number of Living Cells
CD8 T cells; 1 μM, CD8 only
  CD8 T cell viability [Number of Living Cells] average: 23066.67 Number of Living Cells
CD8 T cells; 3 μM, CD8 cells & M21
  CD8 T cell viability [Number of Living Cells] average: 24633.67 Number of Living Cells
CD8 T cells; 3 μM, CD8 only
  CD8 T cell viability [Number of Living Cells] average: 23975.33 Number of Living Cells
CD8 T cells; 10 μM, CD8 cells & M21
  CD8 T cell viability [Number of Living Cells] average: 24006.33 Number of Living Cells
CD8 T cells; 10 μM, CD8 only
  CD8 T cell viability [Number of Living Cells] average: 25522.67 Number of Living Cells
CD8 T cells; CD8 / M21 cultures
  number of CD8 T cells; number of tumor cells in the absence of CD8 T cells: neither the number of CD8 T cells nor the number of tumor cells in the absence of CD8 T cells was substantially modulated
